The results in this text go back to ChEMBL document CHEMBL1159248, “Tyrosinase inhibitors from Bolivian medicinal plants” (J Nat Prod, 1995).

Active and inactive are the calls of the source. The rule behind the calls is not given here.

In experiment [1] the target is T1, Tyrosinase (Agaricus bisporus) (UniProt O42713).
T1 sequence (whole entry): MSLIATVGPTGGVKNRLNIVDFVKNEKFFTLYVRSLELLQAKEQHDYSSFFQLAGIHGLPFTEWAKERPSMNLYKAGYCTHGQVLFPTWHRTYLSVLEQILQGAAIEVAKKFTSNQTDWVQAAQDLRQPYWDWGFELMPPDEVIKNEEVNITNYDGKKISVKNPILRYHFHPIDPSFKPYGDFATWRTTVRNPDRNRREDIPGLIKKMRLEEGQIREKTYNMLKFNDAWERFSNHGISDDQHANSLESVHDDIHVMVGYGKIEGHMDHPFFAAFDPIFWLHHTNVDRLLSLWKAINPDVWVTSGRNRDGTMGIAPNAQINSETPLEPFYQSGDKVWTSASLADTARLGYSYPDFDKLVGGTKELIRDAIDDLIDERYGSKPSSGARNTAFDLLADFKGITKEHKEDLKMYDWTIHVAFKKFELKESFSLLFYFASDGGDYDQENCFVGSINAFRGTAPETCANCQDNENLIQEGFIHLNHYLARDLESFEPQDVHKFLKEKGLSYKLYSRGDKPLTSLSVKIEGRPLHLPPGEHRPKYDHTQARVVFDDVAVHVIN
The experiment is described as follows: Competitive inhibition of mushroom tyrosinase assessed as L-3,4-dihydroxyphenylalanine oxidation.

Experiment [2] concerns the target T1, Tyrosinase (Agaricus bisporus). Briefly: Inhibition of mushroom tyrosinase assessed as L-3,4-dihydroxyphenylalanine oxidation.
For experiment [3] the target is unchanged. The experiment is described as follows: Inhibition of mushroom tyrosinase assessed as L-3,4-dihydroxyphenylalanine at 100 ug/ml.

`O=c1c(O)c(-c2ccc(O)c(O)c2)oc2cc(O)cc(O)c12`: in experiment [1], the result was Active. Also, in experiment [2], the ID50 was found to be 70 µM. On to `O=C(O[C@H]1O[C@@H]2COC(=O)c3cc(O)c(O)c(O)c3-c3c(cc(O)c(O)c3O)C(=O)O[C@H]2[C@@H]2OC(=O)c3cc(O)c(O)c(O)c3-c3c(cc(O)c(O)c3O)C(=O)O[C@@H]12)c1cc(O)c(O)c(Oc2c(C(=O)O[C@H]3O[C@@H]4COC(=O)c5cc(O)c(O)c(O)c5-c5c(cc(O)c(O)c5O)C(=O)O[C@H]4[C@@H]4OC(=O)c5cc(O)c(O)c(O)c5-c5c(cc(O)c(O)c5O)C(=O)O[C@@H]34)cc(O)c(O)c2O)c1`, for which the ID50 in experiment [2] was 61 µM. With `O=C(O)c1ccc(O)cc1`, in experiment [1], the outcome was Active. Further, in experiment [2], the ID50 was 1900 µM. As for `COc1cc(/C=C/C(=O)OC[C@H]2O[C@@H](Oc3cc(O)c4c(=O)c(O)c(-c5ccc(O)cc5)oc4c3)[C@H](O)[C@@H](O)[C@@H]2O)ccc1O`, the ID50 in experiment [2] worked out at 440 µM. The inhibition is how much of the control response was suppressed. Take `O=c1cc(-c2ccc(O[C@@H]3O[C@H](CO)[C@@H](O)[C@H](O)[C@H]3O)c(O)c2)oc2cc(O)cc(O)c12`: the inhibition in experiment [3] was found to be 100%. Turning to `O=C(/C=C/c1ccc(O)cc1)OC[C@H]1O[C@@H](Oc2cc(O)c3c(=O)c(O)c(-c4ccc(O)cc4)oc3c2)[C@H](O)[C@@H](O)[C@@H]1O`, the ID50 in experiment [2] was 390 µM.
